Source: patent US20260144739A1, “A SKIN BRIGHTENING COMPOSITION” (Conopco, Inc., d/b/a UNILEVER, priority 2022, published 2026)

What was measured:
[1] = test system: Co-cultures of HaCat keratinocytes and primary human melanocytes; assay: Cell viability by the Calcein AM method in the co-cultures; type: cell-based; conditions: 4-HR at concentrations higher than 0.0002%, at the cellular level in invitro experiments
Method: (§1) Co-cultures of HaCat keratinocytes and primary human melanocytes were mixed at 40,000 each (1:1 ratio) in 1 ml of a 1:1 mix of their respective culture medium and seeded as such per well, in 12 well plates. After 24 hrs, cultures were treated with various concentrations of the test materials shown in table 1 and left undisturbed for a further period of 72 hrs. Comparative vehicle control was also set up simultaneously. For melanin estimation at the end of the 72 hrs incubation, cell viability was first determined using the Calcein AM method. Briefly, spent media was removed and cells were washed once with 0.4 ml of 1×PBS/well. Fresh 1 μM calcein-AM in PBS buffer was added to each well, including control wells without cells. Plates were covered with aluminium foil and incubated for 30 mins at 37° C. in a CO2 incubator. Calcein fluorescence was measured (excitation at 490 nm and emission at 520 nm) in a TECAN M1000 plate reader. Culture wells were drained and lysed using 1N NaOH containing 10% DMSO and placed for 1 hour at 60° C. in a shaker incubator. 100 μl of the supernatant was transferred to a 384 well plate and melanin was measured in a TECAN plate reader (405 nm filter). Melanin content (MC) was expressed after correction for cell numbers (MC/Calcein) and represented as % melanin.

[2] = test system: Co-cultures of HaCat keratinocytes and primary human melanocytes; assay: Melanin content assay (% melanin reduction) in keratinocyte + melanocyte co-cultures; type: cell-based; conditions: 72 hrs treatment; melanin (405 nm) corrected for cell numbers (MC/Calcein); vs DMSO control; actives in wt % as per example; fermented oil samples diluted 1:40
Method: Various samples containing actives were prepared and the % melanin reduction was measured. The protocol for measuring the melanin reduction is summarized below:
as §1, with “Melanin content (MC) was expressed after correction for cell numbers (MC/Calcein) and represented as % melanin.” left out

Row | SMILES | cell viability [1] | % melanin reduction [2]
1 | CCCCCCc1ccc(O)cc1O [Example 4-HR, 4-hexyl resorcinol] | leads to cell viability problems | –
2 | CCCCCCc1ccc(O)cc1O [B] | – | 23%
3 | CCCCCCc1ccc(O)cc1O [C] | – | 3%
